Experimental findings from US10154974B1, “Use of abscisic acid for the prevention and treatment of malaria” (The Regents of the University of California, priority 2015, dated 2018) are described below.

This assay deals with P. falciparum. The assay is described as follows: P. falciparum infection of A. stephensi fed a supplemented infected bloodmeal. The format is in vivo. As to the method:
For P. falciparum infections A. stephensi were fed on a 1:1 ratio of P. falciparum-infected RBCs containing a treatment or diluent control and provided in a Hemotek Insect Feeding System (Discovery Workshops). ABA was eluted in 100% ethanol and stored at −20 C for up to 6 months. ABA stock was diluted with PBS and added into blood immediately before feeding for final concentrations of 10 nM and 100 nM. For L-NAME feeds mosquitoes were maintained on sugar cubes and water pads containing 1 mg/mL L-NAME for 72 hours before the feed and throughout the course of infection. Infection prevalence data were analyzed by Fisher's Exact Test. Oocyst intensities were analyzed by Mann-Whitney test.

`COC(=O)[C@@H](N)CCCNC(=N)N[N+](=O)[O-]` [L-NAME, Nω-Nitro-L-arginine methyl ester, reference compound]: the “P. falciparum infection prevalence” value (1 mg/ml L-NAME added to 100 nM ABA-supplemented infected bloodmeal) was “rescued P. falciparum infection prevalence back to control levels”. Under “1 mg/ml L-NAME alone”, the P. falciparum infection entry was “no effect”.
